According to patent US20110217355A1, “CONTACT LENS BASED BIOACTIVE AGENT DELIVERY SYSTEM” (priority 2007, published 2011):
Read-outs that look alike come from different tables or passages of the source.

Columns and labels:
[1] = Physical properties of the surfactants obtained from literature; type: physicochemical; conditions: carbons in hydrophobic tail / total carbons
Description: Table 3 lists the surfactants utilized in this study and their relevant physical properties obtained from literature. The value of ‘fh’ is also listed, this is defined as the fraction of hydrophobic chain length of the surfactant and is calculated by taking the ratio of number of carbons in the hydrophobic tail of the surfactant to the total number of carbons present in the surfactant.

[2] = Surfactant release experiments from hydrogels in DI water (surface tension); type: physicochemical; conditions: for Slope (surfactant release vs rescaled time): p-HEMA gels, slope = √(2DSC*×100); for DSC*: surfactant diffusivity times critical aggregation concentration in p-HEMA gel, from fitting surfactant release data
Description: The rates of surfactant release were measured in 3.5 ml of DI water with water replacement after each measurement to maintain perfect sink conditions. The surfactant concentration in the release medium was determined by measuring surface tension (σ), which was then related to the concentration through a σ(C) calibration curve. The surface tension was measured by using a Wilhelmy plate (sand blasted platinum plate) attached to a Scaime France Microbalance which was further connected to a Stathan Universal transducer (SC001).
The rate of surfactant release from surfactant-laden contact lenses needs to be measured because an excessive release could lead to toxicity. Additionally, the rate of surfactant release impacts drug release. As described in the previous section, the surfactant concentration in the release medium was determined by measuring the surface tension of the solution, which is related to the bulk concentration (Data not shown).
where DS is the surfactant diffusivity, C* is the critical aggregation concentration (CAC), i.e., the concentration beyond which the surfactant aggregates inside the gel, t is time, Cp is the concentration of the surfactant present as aggregates inside the hydrogel, and h is the half-thickness of the hydrogel. The above equation is valid for diffusion of any solute that is loaded in the gel above saturation limit and so a fraction of the solute precipitates into aggregates. This equation is the equivalent of the Higuchi equation that is commonly utilized to model drug release from gels [Higuchi T. Rate of release of medicaments from ointment bases containing drugs in suspension. Journal of Pharmaceutical Sciences 1961; 50(10):874-875].
To validate the model and to understand the mechanism of surfactant transport, surfactant release studies were conducted from gels of different surfactant loadings (approximately 2%, 4% and 8% w/w in drug gel) and different gel thicknesses (˜100 and 200 μm in dry state). FIG. 8a-c show the surfactant release from 100 μm thick and 200 μm thick gels with three different surfactant concentration explored for 200 μm thick gels. The data is re-plotted in FIG. 9a-c with time axis rescaled to
The fact that association of Brij 700 with the gel matrix is strongly dependant on the gel thickness may be due to large number of ethylene oxide (EO) units in the surfactant.
The slope indicated in FIG. 9(a-c) represents the value of √{square root over (2DSC*×100)}.
As mentioned above, the critical aggregation concentration for Brij 700 in p-HEMA gels is more than 1%, and so the release data from gels loaded with 1% (w/w) can be fitted to the following equation to obtain the surfactant diffusivity [Ritger P L, Peppas N A. A simple equation for description of solute release 1. Fickian and non-Fickian release from mom-swellable devices in the form of slabs, spheres, cylinders and discs. Journal of Controlled Release 1987; 5:23-36].
Here DS is the diffusivity of the surfactant and h is the half-thickness of the gel. The diffusivity of Brij 700 from these hydrogels was determined to be 7.85×10^−17 m^2/s and subsequently the value of C* was evaluated from the already determined parameter ‘DsC*’ (Table 4) to be 2.4±1.1 mM, which is equivalent to 1.12±0.51% surfactant in a dry gel. This value is in reasonable agreement with the hypothesis C* for Brij 700 is approximately 2%, which was based on the overlapping percentage release data for 1% and 2% Brij 700 loaded gels.

[3] = calculated earlier (Kapoor and Chauhan 2008), reported for comparison; cited from earlier work
cornea = conditions: exposure to 0.05% solution for about 5 hours; cited from earlier work

Substance | fh (fraction of hydrophobic chain length of the surfactant) [1] | Slope (surfactant release vs rescaled time) [2] | DSC* [2] | DSC* [3] | Slope (surfactant release vs rescaled time) [3] | corneal hydration (cornea) | average release of surfactant ([2]; 100 micron thick gel with 8% loading) | amount of surfactant released ([2]; 100 micron thick gel with 8% loading, 10 days) | surfactant released from gel ([2]; 100 micron thick gel with 8% loading, period of 10 days) | surfactant released into the post lens tear film ([2]; at the most half of the average release, lens on an eye) [µg/day] | C* as surfactant in a dry gel ([2]; equivalent of the mM value) [%] | C* (critical aggregation concentration) ([2]; in p-HEMA gel, evaluated from DsC* and DS) [mM] | diffusivity of the surfactant from hydrogels (DS) ([2]; p-HEMA gels loaded with 1% (w/w) surfactant)
POE (10) oleyl ether [Brij 97] | 0.47 | 0.4802 ± 0.010 | 11.52 (μm)^2M/s × 10^6 | – | – | – | – | – | – | – | – | – | –
POE (20) oleyl ether [Brij 98] | 0.31 | – | – | 60.80 (μm)^2M/s × 10^6 | 1.1000 ± 0.013 | – | – | – | – | – | – | – | –
POE (20) stearyl ether [Brij 78] | 0.31 | 0.1846 ± 0.050 | 1.70 (μm)^2M/s × 10^6 | – | – | does not lead to any significant increase in corneal hydration | about 30 μg/day | around 300 μg | about 10% | ≤ 15 | – | – | –
POE (100) stearyl ether [Brij 700] | 0.08 | 0.0613 ± 0.013 | 0.19 (μm)^2M/s × 10^6 | – | – | – | – | – | – | – | 1.12±0.51 | 2.4 ± 1.1 | 7.85×10^−17 m^2/s
